From US10259810B2, “N-sulfonylated pyrazolo[3,4-b]pyridin-6-carboxamides and method of use” (AbbVie S.à.r.l., priority 2015, dated 2019)
Like-named read-outs stand apart in the source and are kept apart here.

Molecular target: T1, ΔF508-CFTR (Homo sapiens, UniProt P13569, DEL508-508)
T1 construct: host or cells: CFBE41o-, doxycycline-inducible
Assay: CFTR cell surface levels using HRP-tagged ΔF508-CFTR expressing CFBE cells, in the presence of a co-corrector
Type: cell-based
Text: Measuring CFTR Cell Surface Levels Using HRP-Tagged ΔF508-CFTR Expressing CFBE Cells
The HRP-tagged ΔF508-CFTR cell assay measures the expression of CFTR-ΔF508 at the plasma membrane. CFTR-ΔF508 has a folding defect leading to absence of protein at the plasma membrane. This assay is used to evaluate the capacity of compounds to increase the expression of CFTR-ΔF508 at the plasma membrane. The CFTR-ΔF508 is tagged with HRP (horse radish peroxidase enzyme) within the ECL4 (Extracellular loop 4) of CFTR (Phuan, P.-W. et al. Synergy-based small-molecule screen using a human lung epithelial cell line yields ΔF508-CFTR correctors that augment VX-809 maximal efficacy. Mol. Pharmacol. 86, 42-51 (2014)). When HRP-tagged ΔF508-CFTR is present at the plasma membrane, the HRP enzyme activity can be measured. The amount of CFTR-ΔF508 that can be rescued to the plasma membrane is correlated with the amount of functional enzyme that can be measured.
There are several ways to measure the capacity of compounds to rescue CFTR-ΔF508 to the plasma membrane; either compounds are evaluated on their own and the impact on plasma membrane levels is measured or compounds are evaluated in combination with a co-corrector, i.e. a compound that rescues CFTR-ΔF508 to the plasma membrane but rescue can be enhanced by addition of compounds due to a complementary mode of action.
Activity of Compounds in Combination with Co-Corrector:
For this purpose doxycycline-inducible ΔF508-CFTR-HRP expressing CFBE4lo− cells (obtained from Gergely Lukacs, McGill University) were maintained in MEM (Minimum Essential Medium, Gibco; 31095) supplemented with 10% fetal bovine serum (Hyclone; SV30160.03) under puromycin (3 μg/mL) and G418 selection (0.2 mg/mL). For compound testing, cells were seeded at 4000 cells/well in white 384-well plates (Greiner; 781080) in 50 μL of medium containing 0.5 μg/mL doxycycline and incubated for 68 hours at 37° C., 5% CO2. On day four, 10 μL of test compounds diluted in PBS (phosphate buffered saline) were added to the plates at a final DMSO concentration of 0.1%. In order to measure compound synergy with a co-corrector, 3 μM co-corrector (3-[(2R,4R)-4-({[1-(2,2-difluoro-1,3-benzodioxol-5-yl)cyclopropyl]carbonyl}amino)-7-methoxy-3,4-dihydro-2H-chromen-2-yl]benzoic acid) was added along with test compounds. All compound plates contained negative controls (DMSO) and positive controls (3 μM co-corrector). Cell plates were incubated at 33° C., 5% CO2 for 20 hours. On day five, the cells were washed five times with phosphate-buffered saline, and HRP activity was assayed by the addition of 50 μL/well of HRP substrate (SuperSignal™ West Pico Chemiluminescent Substrate, Thermo Scientific; 34080). After incubation for 15 minutes in the dark, the chemiluminescence was measured using a plate reader (EnVision®, Perkin Elmer). Raw data were normalized to percentage activity values using the equation: 100×(Sample−Negative control)/(Positive control−Negative Control).

[1] = HRP-tagged ΔF508-CFTR CFBE cells, in the presence of 3 μM co-corrector
[2] = HRP-tagged ΔF508-CFTR CFBE cells, in the presence of 3 μM co-corrector, read-out: EC50

T1 sequence (P13569 with tags, fused parts or gaps DEL508-508): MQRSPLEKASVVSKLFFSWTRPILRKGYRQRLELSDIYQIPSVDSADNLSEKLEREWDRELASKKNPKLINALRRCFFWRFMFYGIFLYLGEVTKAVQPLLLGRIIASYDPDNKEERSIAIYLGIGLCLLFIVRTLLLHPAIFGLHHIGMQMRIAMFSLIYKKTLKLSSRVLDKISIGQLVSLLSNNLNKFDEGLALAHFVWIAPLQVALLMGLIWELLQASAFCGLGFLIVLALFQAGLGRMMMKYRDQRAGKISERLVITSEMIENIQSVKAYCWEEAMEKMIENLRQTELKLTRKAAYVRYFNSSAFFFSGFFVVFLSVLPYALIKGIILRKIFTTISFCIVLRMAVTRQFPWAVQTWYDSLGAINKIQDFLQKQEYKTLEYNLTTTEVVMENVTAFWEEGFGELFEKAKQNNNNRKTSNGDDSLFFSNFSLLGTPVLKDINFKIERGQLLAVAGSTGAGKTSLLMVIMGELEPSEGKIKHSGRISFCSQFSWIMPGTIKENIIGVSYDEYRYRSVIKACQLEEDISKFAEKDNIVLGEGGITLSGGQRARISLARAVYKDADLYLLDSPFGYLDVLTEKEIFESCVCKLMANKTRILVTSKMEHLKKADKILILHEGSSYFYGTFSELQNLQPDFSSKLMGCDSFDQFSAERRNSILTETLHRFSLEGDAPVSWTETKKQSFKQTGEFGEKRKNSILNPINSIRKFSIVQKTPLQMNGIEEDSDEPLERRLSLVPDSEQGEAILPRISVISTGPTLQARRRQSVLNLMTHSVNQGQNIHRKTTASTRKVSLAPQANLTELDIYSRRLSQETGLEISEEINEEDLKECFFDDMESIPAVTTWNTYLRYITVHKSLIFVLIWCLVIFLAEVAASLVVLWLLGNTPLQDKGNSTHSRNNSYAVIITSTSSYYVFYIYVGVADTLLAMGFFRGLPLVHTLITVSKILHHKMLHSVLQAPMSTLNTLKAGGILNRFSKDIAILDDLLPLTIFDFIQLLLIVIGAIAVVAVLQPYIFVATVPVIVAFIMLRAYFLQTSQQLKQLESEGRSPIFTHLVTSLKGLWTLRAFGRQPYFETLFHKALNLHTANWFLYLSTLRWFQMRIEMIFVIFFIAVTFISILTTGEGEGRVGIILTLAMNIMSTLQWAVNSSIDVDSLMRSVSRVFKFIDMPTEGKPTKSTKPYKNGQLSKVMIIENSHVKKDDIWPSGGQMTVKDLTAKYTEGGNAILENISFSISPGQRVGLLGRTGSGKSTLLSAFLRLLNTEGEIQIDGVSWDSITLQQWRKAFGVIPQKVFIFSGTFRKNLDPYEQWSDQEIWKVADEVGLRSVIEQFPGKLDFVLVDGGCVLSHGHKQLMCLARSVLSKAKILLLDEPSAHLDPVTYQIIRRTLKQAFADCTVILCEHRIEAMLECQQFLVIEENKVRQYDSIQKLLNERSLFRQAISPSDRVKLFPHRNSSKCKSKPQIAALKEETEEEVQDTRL

With O=C(NS(=O)(=O)N1CCC(N2CCOCC2)CC1)c1cc(OCC2CCOCC2)c2c(C3CCC3)nn(-c3ccccc3)c2n1 [Compound 359, 3-cyclobutyl-N-[4-(morpholin-4-yl)piperidine-1-sulfonyl]-4-[(oxan-4-yl)methoxy]-1-phenyl-1H-pyrazolo[3,4-b]pyridine-6-carboxamide] the “% Activation” value [1] was 236.25% and the EC50 [2] was 299 nM.
With COCC1CCN(c2cc(C(=O)NS(=O)(=O)CCCN3CCC3)nc3c2c(C(C)C)nn3-c2ccc(F)cc2)CC1 [Compound 302, N-[3-(azetidin-1-yl)propane-1-sulfonyl]-1-(4-fluorophenyl)-4-[4-(methoxymethyl)piperidin-1-yl]-3-(propan-2-yl)-1H-pyrazolo[3,4-b]pyridine-6-carboxamide] the “% Activation” value [1] was 401.45% and the EC50 [2] was 1800 nM.
In the case of CC(C)c1nn(-c2ccc(F)cc2)c2nc(C(=O)NS(C)(=O)=O)cc(N3CC[C@@H](O)[C@H](F)C3)c12 [Compound 344, 4-[(3R,4R)-3-fluoro-4-hydroxypiperidin-1-yl]-1-(4-fluorophenyl)-N-(methanesulfonyl)-3-(propan-2-yl)-1H-pyrazolo[3,4-b]pyridine-6-carboxamide], the “% Activation” value [1] is reported as 374.5% and the EC50 [2] is reported as 1060 nM.
COCC(COC)Oc1cc(C(=O)NS(C)(=O)=O)nc2c1c(C(C)C)nn2-c1ccc(F)cc1 [Compound 311, 4-[(1,3-dimethoxypropan-2-yl)oxy]-1-(4-fluorophenyl)-N-(methanesulfonyl)-3-(propan-2-yl)-1H-pyrazolo[3,4-b]pyridine-6-carboxamide] was tested, and the “% Activation” value [1] was 241.35% and the EC50 [2] was 1060 nM.
With COCC(COC)Oc1cc(C(=O)NS(C)(=O)=O)nc2c1c(C1CCC1)nn2-c1ccccc1 [Compound 324, 3-cyclobutyl-4-[(1,3-dimethoxypropan-2-yl)oxy]-N-(methanesulfonyl)-1-phenyl-1H-pyrazolo[3,4-b]pyridine-6-carboxamide] the “% Activation” value [1] was 259.7% and the EC50 [2] was 1640 nM.
O=C(NS(=O)(=O)N1CCOCC1)c1cc(OCC2CCOCC2)c2c(C3CCC3)nn(-c3ccccc3)c2n1 [Compound 358, 3-cyclobutyl-N-(morpholine-4-sulfonyl)-4-[(oxan-4-yl)methoxy]-1-phenyl-1H-pyrazolo[3,4-b]pyridine-6-carboxamide] was tested, and the “% Activation” value [1] was 242.33% and the EC50 [2] was 89.9 nM.
With CN1CCN(S(=O)(=O)NC(=O)c2cc(OCC3CCOCC3)c3c(C4CCC4)nn(-c4ccccc4)c3n2)CC1 [Compound 361, 3-cyclobutyl-N-(4-methylpiperazine-1-sulfonyl)-4-[(oxan-4-yl)methoxy]-1-phenyl-1H-pyrazolo[3,4-b]pyridine-6-carboxamide] the “% Activation” value [1] was 204.1% and the EC50 [2] was 181 nM.
With CCS(=O)(=O)NC(=O)c1cc(N2CCC(C(C)N3CCOCC3)CC2)c2c(C3CCC3)nn(-c3ccc(F)cc3)c2n1 (stereo not shown) [Compound 446, 3-cyclobutyl-N-(ethanesulfonyl)-1-(4-fluorophenyl)-4-{4-[1-(morpholin-4-yl)ethyl]piperidin-1-yl}-1H-pyrazolo[3,4-b]pyridine-6-carboxamide] the “% Activation” value [1] was 669.9% and the EC50 [2] was 77.4 nM.
In the case of CC(C)c1nn(-c2ccc(F)cc2)c2nc(C(=O)NS(C)(=O)=O)cc(N3CCC4(CC3)NC(=O)NC4=O)c12 [Compound 341, 4-(2,4-dioxo-1,3,8-triazaspiro[4.5]decan-8-yl)-1-(4-fluorophenyl)-N-(methanesulfonyl)-3-(propan-2-yl)-1H-pyrazolo[3,4-b]pyridine-6-carboxamide], the “% Activation” value [1] is reported as 165.4% and the EC50 [2] is reported as 3330 nM.
With COCCOCC1(F)CCN(c2cc(C(=O)NS(C)(=O)=O)nc3c2c(C(C)C)nn3-c2ccc(F)cc2)CC1 [Compound 343, 4-{4-fluoro-4-[(2-methoxyethoxy)methyl]piperidin-1-yl}-1-(4-fluorophenyl)-N-(methanesulfonyl)-3-(propan-2-yl)-1H-pyrazolo[3,4-b]pyridine-6-carboxamide] the “% Activation” value [1] was 356.9% and the EC50 [2] was 566 nM.
In the case of CC(C)c1nn(-c2ccc(F)cc2)c2nc(C(=O)NS(C)(=O)=O)cc(N3CCC4(CC3)CN(C)C(=O)O4)c12 [Compound 338, 1-(4-fluorophenyl)-N-(methanesulfonyl)-4-(3-methyl-2-oxo-1-oxa-3,8-diazaspiro[4.5]decan-8-yl)-3-(propan-2-yl)-1H-pyrazolo[3,4-b]pyridine-6-carboxamide], the “% Activation” value [1] is reported as 344.25% and the EC50 [2] is reported as 946 nM.
CN1CCN(C(=O)C2CCN(S(=O)(=O)NC(=O)c3cc(OCC4CCOCC4)c4c(C5CCC5)nn(-c5ccccc5)c4n3)CC2)CC1 [Compound 360, 3-cyclobutyl-N-[4-(4-methylpiperazine-1-carbonyl)piperidine-1-sulfonyl]-4-[(oxan-4-yl)methoxy]-1-phenyl-1H-pyrazolo[3,4-b]pyridine-6-carboxamide] was tested, and the “% Activation” value [1] was 182.8% and the EC50 [2] was 101 nM.
With CC(C)c1nn(-c2ccc(F)cc2)c2nc(C(=O)NS(C)(=O)=O)cc(OCCOC3COC3)c12 [Compound 313, 1-(4-fluorophenyl)-N-(methanesulfonyl)-4-{2-[(oxetan-3-yl)oxy]ethoxy}-3-(propan-2-yl)-1H-pyrazolo[3,4-b]pyridine-6-carboxamide] the “% Activation” value [1] was 319.75% and the EC50 [2] was 1750 nM.
CCS(=O)(=O)NC(=O)c1cc(N2CCC(N3CCOCC3)CC2)c2c(C(C)C)nn(-c3ccc(F)cc3)c2n1 [Compound 413, N-(ethanesulfonyl)-1-(4-fluorophenyl)-4-[4-(morpholin-4-yl)piperidin-1-yl]-3-(propan-2-yl)-1H-pyrazolo[3,4-b]pyridine-6-carboxamide] was tested, and the EC50 was 90.6 nM and the “% Activation” value [1] was 455.9%.
Cc1nn(-c2ccccc2)c2nc(C(=O)NS(C)(=O)=O)cc(-c3ccc(N4CCOCC4)cc3)c12 [Compound 1, N-(methanesulfonyl)-3-methyl-4-[4-(morpholin-4-yl)phenyl]-1-phenyl-1H-pyrazolo[3,4-b]pyridine-6-carboxamide] was tested, and the “% Activation” value [1] was 297.2% and the EC50 [2] was 1190 nM.
For COCC1(F)CCN(c2cc(C(=O)NS(C)(=O)=O)nc3c2c(C(C)C)nn3-c2ccc(F)cc2)CC1 [Compound 345, 4-[4-fluoro-4-(methoxymethyl)piperidin-1-yl]-1-(4-fluorophenyl)-N-(methanesulfonyl)-3-(propan-2-yl)-1H-pyrazolo[3,4-b]pyridine-6-carboxamide], the “% Activation” value [1] was 301.1% and the EC50 [2] was 223 nM.
For CC(=O)N1CC[C@@H]2CN(c3cc(C(=O)NS(=O)(=O)CCCN4CCOCC4)nc4c3c(C3CCC3)nn4-c3ccccc3)CC[C@@H]21 [Compound 332, 4-[(3aR,7aS)-1-acetyloctahydro-5H-pyrrolo[3,2-c]pyridin-5-yl]-3-cyclobutyl-N-[3-(morpholin-4-yl)propane-1-sulfonyl]-1-phenyl-1H-pyrazolo[3,4-b]pyridine-6-carboxamide], the EC50 was 624 nM and the “% Activation” value [1] was 448.25%.
For CS(=O)(=O)NC(=O)c1cc(OCCCN2CCCCC2)c2c(C3CCC3)nn(-c3ccccc3)c2n1 [Compound 314, 3-cyclobutyl-N-(methanesulfonyl)-1-phenyl-4-[3-(piperidin-1-yl)propoxy]-1H-pyrazolo[3,4-b]pyridine-6-carboxamide], the “% Activation” value [1] was 375.8% and the EC50 [2] was 693 nM.
In the case of CC(C)c1nn(-c2ccc(F)cc2)c2nc(C(=O)NS(=O)(=O)C3CC3)cc(N3CCC(N4CCOCC4)CC3)c12 [Compound 414, N-(cyclopropanesulfonyl)-1-(4-fluorophenyl)-4-[4-(morpholin-4-yl)piperidin-1-yl]-3-(propan-2-yl)-1H-pyrazolo[3,4-b]pyridine-6-carboxamide], the EC50 is reported as 159 nM and the “% Activation” value [1] is reported as 508.3%.
With O=C(NS(=O)(=O)C1CC1)c1cc(N2CCC(N3CCCCC3)CC2)c2c(C3CCC3)nn(-c3ccccc3)c2n1 [Compound 428, 4-([1,4′-bipiperidin]-1′-yl)-3-cyclobutyl-N-(cyclopropanesulfonyl)-1-phenyl-1H-pyrazolo[3,4-b]pyridine-6-carboxamide] the EC50 was 77.3 nM and the “% Activation” value [1] was 434.7%.
